The source of these data is paper PMC8111429 (2021).

In test [1] the test system is F21T (DNA, G4) GGGTTAGGGTTAGGGTTAGGG
Briefly: FRET melting. The settings on record: K+ 10 mM, Na+ 10 mM, Li+ 90 mM; KCl–LiCl–cacodylate, pH 7.0; LDR 5; DNA 0.2 mM [sic] (0.2 µM, ligand 1 µM).

Test [2] has as its system FkitT (DNA, G4) AGGGAGGGCGCTGGGAGGAGGG
Briefly: FRET melting. The following applies: K+ 10 mM, Na+ 10 mM, Li+ 90 mM; KCl–LiCl–cacodylate, pH 7.0; LDR 5; DNA 0.2 mM [sic] (0.2 µM, ligand 1 µM).

In test [3] the test system is FmycT (DNA, G4) TGAGGGTGGGTAGGGTGGGTA
Briefly: FRET melting. The following applies: K+ 10 mM, Na+ 10 mM, Li+ 90 mM; KCl–LiCl–cacodylate, pH 7.0; LDR 5; DNA 0.2 mM [sic] (0.2 µM, ligand 1 µM).

The test system of test [4] is 22AG (DNA, G4) AGGGTTAGGGTTAGGGTTAGGG
Description: photometric (absorption) titration. The following applies: K+ 110 mM; K-phosphate buffer, pH 7.0, 5% v/v DMSO; ligand 20 µM; per site.

Test [5] concerns Fa2T (DNA, G4) ACAGGGTGTACAGGGTGT
Description: FRET melting. The settings on record: K+ 10 mM, Na+ 10 mM, Li+ 90 mM; KCl–LiCl–cacodylate, pH 7.0; LDR 5; DNA 0.2 mM [sic] (0.2 µM, ligand 1 µM).

As to `COc1c(Oc2ccccc2)ccc2cc3[n+](cc12)CCc1cc2c(cc1-3)OCO2`, the “∆Tm” value came out at 3.2 ± 0.5 °C in test [1], 0.1 ± 0.5 °C in test [2] and 0.4 ± 0.5 °C in test [3]. In addition, the Kb in test [4] is listed as 8.7 ± 0.2 × 10^5 M^-1.
As for `COc1c(Oc2ccc([N+](=O)[O-])cc2)ccc2cc3[n+](cc12)CCc1cc2c(cc1-3)OCO2`, the “∆Tm” value was 3.5 ± 0.5 °C in test [1] and 1.8 ± 0.5 °C in test [3]. Moreover, in test [4], the Kb is 7.9 ± 0.3 × 10^5 M^-1.
For `COc1c(Oc2ccc(Br)cc2)ccc2cc3[n+](cc12)CCc1cc2c(cc1-3)OCO2` the same measures were 1.8 ± 0.5 °C, 2.1 ± 0.5 °C and 5.2 ± 0.3 × 10^5 M^-1.
On to `COc1c(Oc2ccc(Cl)cc2)ccc2cc3[n+](cc12)CCc1cc2c(cc1-3)OCO2`, for which the “∆Tm” value worked out at 2.6 ± 0.5 °C in test [1] and 1.2 ± 0.5 °C in test [5]. In addition, in test [4], the Kb is 7.1 ± 0.2 × 10^5 M^-1.
For the compound `COc1ccc(Oc2ccc3cc4[n+](cc3c2OC)CCc2cc3c(cc2-4)OCO3)cc1`, the “∆Tm” value in test [1] turned out to be 3.9 ± 0.5 °C; in test [5], 0.1 ± 0.5 °C; in test [2] it was 0.6 ± 0.5 °C. Further, in test [4], the Kb is listed as 7.2 ± 0.2 × 10^5 M^-1.
